# Measurements taken from patent US10912846B2, “Molecular probes for chemiluminescence imaging and in vivo detection of target molecules” (ARIZONA BOARD OF REGENTS ON BEHALF OF THE UNIVERSITY OF …, priority 2015, dated 2021).
# Columns and labels:
# [1] = Solubility in alkaline and PBS solutions; format: physicochemical; settings: alkaline and phosphate-buffered saline solutions (PBS, pH=7.4)
# Experimental: Oxidation of compound 3 was accompanied by vivid green luminescence when the excited oxidation product (compound 2) underwent deactivation (see FIG. 1).
# Solids of compound 3 or luminol were dissolved in 0.01 M NaOH to a final concentration of 8.0×10^−3 M, and the resulting solutions were stored at 4° C. in the absence of light. The solutions were further diluted by using sterile phosphate-buffered saline (PBS, 0.01 M and pH 7.4) as desired in various studies. PMA was dissolved in DMSO to prepare 500 µg/ml solution. HRP was freshly prepared by dilution using sterile PBS.
# [2] = In vitro chemiluminescence kinetics of oxidation by H2O2
# Experimental: (§1) Solutions of 3 and luminol were prepared in 0.01 M PBS (pH of 7.4). For all ROS other than H2O2, the reaction was carried out by mixing 200 μL of the ROS solution (1.0×10^−3 M) with 800 μL of the solution of probe 3 or luminol (1.0×10^−6 M). The voltage of the photomultiplier tube (PMT) was set at −400 V. In the case of H2O2, 200 μL of its solution (1.0×10^−2 M) was used, and the voltage of PMT was set at −800 V; the other conditions were identical to those used for the other ROS.
# [3] = tested on: mechanical crush and syringe needle piecing; experiment: CLI of mechanical injuries on the tail; format: in vivo, mice; settings: 200 μL of 2.0×10^−4 M; 0, 20, 40 min
# Experimental: (§2) Additional experiments were carried out using test mice suffering from gingival hemorrhage and mechanical injury. For example, nude mice were fed with cooked yolk for 1 week until gingival hemorrhage was visually identified. Various images were acquired (e.g., 0, 20 (supine position), and 30 min (prone position)) after the injection of 200 μL of 2.0×10^−4 M probe 3 or luminol (data not shown). […] Also, images of injuries (e.g., mechanical crush and syringe needle piecing, both on the end to tail) were acquired 0, 20, and 40 min, respectively, after the injection of 200 μL of probe 3 (2.0×10^−4 M).
# acute dermatitis = experiment: CLI of acute dermatitis induced by dimethylbenzene; format: in vivo, mice; settings: 720 μg/kg; 30, 60, 90 min
# Acute toxicity in mice = settings: mouse, in vivo
# Excerpt: The results are summarized in (a).
# [4] = In vitro chemiluminescence from oxidation by non-H2O2 ROS; settings: PBS pH 7.4, ROS 1.0×10^−3 M, probe 1.0×10^−6 M
# Experimental: as §1
# [5] = tested on: raw 264.7 cells; human monocyte; experiment: In vitro response to phagocyte respiratory burst; format: cell-based; settings: 5.0×10^−5 M; PMA or FMLP 100 μg/ml
# Experimental: No chemiluminescence was detected in the absence of phorbol 12-myristate 13-acetate for (PMA) or N-formylmethionyl-leucyl-phenyl-alanine (FMLP). (a) CL kinetics resulting from the response of probe 3 to respiratory burst of raw 264.7 cells when stimulated with PMA (100 μg/ml). (b) CL kinetics resulting from the response of probe 3 to respiratory burst of human monocyte (10^6 cells/ml) in hank's when stimulated by FMLP (100 μg/ml). The kinetics curves were recorded with an MPI-A Chemiluminescence Analyzer with the use of probe 3 or luminol (5.0×10^−5 M).
# [6] = mouse, in vivo
# Experimental: Nude mice (24-26 g) were anesthetized followed by intraperitoneal injection of 3 or 2 (in 0.01 M PBS pH 7.4) using a dose of 660 μg of 3 or 2 per kilogram of the mouse body weight. The mice were housed individually and received food ad libitum. Urine was collected every 1 to 2 hours, and the collected samples were diluted to appropriate concentration with PBS. Probe 3 in each urine sample was quantified by comparing the intensity of its chemiluminescence resulting from its oxidation by NaClO with those of standard solutions. […] The potential toxicity of the probe was further evaluated with a sample of 50 mice using a dose of probe 3 at 72 mg/kg body weight of mouse.
# inflammation = experiment: CLI of inflammation caused by intramuscular injection of PBS; format: in vivo, nude mice; settings: PBS intramuscularly two days prior; compared with 18FDG-PET/CT
# Experimental: Furthermore, inflammation caused by intramuscular injection of PBS was also clearly imaged using probe 3 and in comparison with results using PET/CT (data not shown). Nude mice were intramuscularly injected with PBS two days prior to said imaging experiments. For the verification of the induced inflammation, 18-Fluorodeoxyglucose-Positron emission tomography/Computed tomography (18FDG-PET/CT) scan, from feet to head, was performed 12 h after the CLI experiment. The test mouse was anesthetized with isoflurane inhalation followed by intraperitoneal injection of 3.7 MBq of ^18FDG. An uptake time of 60 min was allowed before acquisition.
# HRP [7] = experiment: Oxidation by H2O2 catalyzed by trace HRP in vitro; format: biochemical, horseradish
# gingival hemorrhage = experiment: CLI of gingival hemorrhage; format: in vivo, nude mice; settings: 200 μL of 2.0×10^−4 M
# Experimental: as §2
# HRP-Ab = biological target: T1, HRP-Ab (Armoracia rusticana, UniProt P00433); experiment: CLI of HRP-labeled goat anti-mouse IgG (HRP-Ab) in nude mice; format: in vivo
# T1 construct: purchased ZSGB-Bio Inc. ZB2305
# T1 sequence (P00433 31-338 limits assumed): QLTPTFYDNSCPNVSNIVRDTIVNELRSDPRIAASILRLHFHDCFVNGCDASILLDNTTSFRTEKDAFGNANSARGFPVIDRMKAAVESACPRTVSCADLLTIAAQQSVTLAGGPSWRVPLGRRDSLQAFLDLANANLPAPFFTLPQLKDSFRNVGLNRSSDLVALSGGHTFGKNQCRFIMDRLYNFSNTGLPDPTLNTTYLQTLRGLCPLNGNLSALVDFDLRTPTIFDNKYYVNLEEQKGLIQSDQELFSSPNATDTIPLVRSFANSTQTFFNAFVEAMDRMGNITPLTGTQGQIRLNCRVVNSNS
# Experimental: The use of the probe was validated using an enzyme-linked immunosorbent assay (ELISA) by imaging in nude mice the HRP-labeled goat anti-mouse IgG (HRP-Ab), a commercially available and commonly used HRP-antibody conjugate. To assess the sensitivity of the CLI, different amounts of the conjugate were administered to three of the legs of a nude mouse with the left foreleg injected with PBS only being the control. […] The brightness of the emission is proportional to the amount of HRP-Ab present. […] However, in the two hind legs, whose total activity of HRP is at 0.015 and 0.030 U, respectively, the emission of light was vivid, and the reduction in luminescence intensity was only about 10% after 60 minutes following the probe administration.
# Nude mice used in this work, each weighing 20-26 g, were obtained from the Laboratory Animal Center of the Fourth Military Medical University, China. Research and animal sacrifice protocols are in accordance with the principles and guidelines adopted by the Fourth Military Medical University. The mice were kept for an acclimatization period of 7 days under laboratory conditions (temperature maintained at 22±2° C., 12-hr cycles of alternating illumination and darkness, and free access to food and water) prior to any imaging experiments. Nude mice were anesthetized by isoflurane inhalation, following which 200 μL of a solution of compound 3 or luminol in PBS of pH 7.4 was injected intraperitoneally. For the imaging of HPR or HRP-Ab, the probe solution (2.0×10^−3 M) was first injected, followed by the subcutaneous injection 20 minutes after of PBS and HRP (variable amount in 0.01 M PBS) solutions into the legs of nude mice. The control experiments with the use of luminol were conducted under otherwise identical conditions. IVIS 200 bioluminescence imaging system (Caliper Life Sciences) (f/stop, 1; no optical filter) was used for all imaging experiments. Exposure time was set at 5 minutes with moderate sensitivity, and the binning and field of view (FOV) are 8 and 13.3 cm, respectively. […]
# HRP [8] = biological target: T2, HRP (Armoracia rusticana, UniProt P00433); experiment: CLI of subcutaneously injected HRP in nude mice; format: in vivo
# T2 construct: purchased Sigma-Aldrich
# T2 sequence (P00433 31-338 limits assumed): T1 sequence (P00433 31-338 limits assumed)
# Experimental: CLI of HRP in the same nude mouse with the use of compound 3 as probe (7.2 mg per kg body weight, intraperitoneally injected). Against PBS-only control in the left foreleg, the total activity of HRP introduced into the right foreleg, the left hind leg, and the right hind leg were 0.0250, 0.125, and 0.250 U, respectively. The moment when the administration of 3 was completed was set as −20 min (panel (i)) with 0 min (panel (ii)) being the moment when the subcutaneous injection of HRP was finished. The circles in panel (ii) indicate both the sites of HRP introduction and the ROI for which photon-counting integration was performed.
# Imaging of HRP was acquired in nude mice pre-injected with compound 3 (720 μg per kg body weight) against a control mouse intraperitoneally injected with luminol. […] To achieve significant CL intensity and to assure the accuracy of photon counting, the probe at a concentration of 720 μg/kg was used in subsequent studies in nude mice whose right foreleg, left hind leg, and right hind leg were injected with HRP of a total activity of 12.5 U, 25.0 U, and 50.0 U, respectively. Significant luminescence was produced and remained stable in a time window of 40 to 120 minutes following the introduction of HRP in each of the legs (data not shown).
# In subsequent experiments, a dose of 7.2 mg/kg of compound 3 was used with which a total activity of HRP as low as 0.025 U could be detected. The CL produced intensified as the concentration of HRP increased, yielding a positive linear relationship.
# Nude mice used in this work, each weighing 20-26 g, were obtained from the Laboratory Animal Center of the Fourth Military Medical University, China. Research and animal sacrifice protocols are in accordance with the principles and guidelines adopted by the Fourth Military Medical University. The mice were kept for an acclimatization period of 7 days under laboratory conditions (temperature maintained at 22±2° C., 12-hr cycles of alternating illumination and darkness, and free access to food and water) prior to any imaging experiments. […]
smiles,measurement,setting,value
O=C(O)c1cc2c(=O)[nH][nH]c(=O)c2cc1-c1c2ccc(=O)cc-2oc2cc(O)ccc12 [compound 3],solubility,[1],readily soluble
same,duration of luminescence,"[2]; H2O2 1.0×10^−2 M, PMT −800 V",more than 18 days
same,sensitivity toward H2O2 compared with the other ROS,[2]; PMT −800 V needed for detection,insensitivity
same,identification of sites of inflammation by luminescence,[3],clearly identified
same,CLI of acute dermatitis,acute dermatitis,highly efficient
same,acute toxicity,Acute toxicity in mice,does not appear that the probe or the resulting luminophore has significant acute toxicity
same,CL response / sensitivity to ROS compared with luminol,[4],more sensitive
same,CL response / sensitivity to ROS compared with luminol,[4]; listed as probe 3,much stronger responses
same,sensitivity for detection of ROS compared with luminol,[5],much more sensitive
same,metabolism during the imaging procedure,[6],not quickly metabolized
same,"uptake, IP versus IV injection",[6],comparable uptakes
same,probe cleared by uresis,[6]; nude,about 90%
same,imaging of inflammation,inflammation,clearly showed inflammation
same,luminescence from oxidation by H2O2,HRP [7]; HRP 5.0×10−5 mg/mL added,intense emission of a green light
same,luminescence from oxidation by H2O2,"HRP [7]; no HRP, probe 5.0×10^−3 M, H2O2 1.0×10^−4 M",no detectable luminescence
same,identification of sites of inflammation by luminescence,gingival hemorrhage,clearly identified
same,reduction in luminescence intensity,"HRP-Ab; 7.2 mg/kg IP, hind legs 0.015 and 0.030 U, after 60 minutes",about 10%
same,luminescence at HRP-Ab site,"HRP-Ab; hind legs, 0.015 and 0.030 U",vivid
same,luminescence at HRP-Ab site,"HRP-Ab; right foreleg, 0.0030 U HRP-Ab",inadequate to produce any significant photon count or luminescence
same,HRP activity at which production of CL appeared saturated,HRP [8]; 720 μg/kg,about 25.0 U
same,lowest total activity of HRP detected,HRP [8]; 7.2 mg/kg,≤ 0.025 U
same,dosage at which CL could be detected,HRP [8]; mice,about 2 μg/kg
"Nc1cccc2c(=O)[nH][nH]c(=O)c12 [luminol, Luminol, reference compound]",time for luminescence to decay to the baseline,"[2]; H2O2 1.0×10^−2 M, PMT −800 V",about 600 s
same,CLI of acute dermatitis,acute dermatitis,failed to produce any detectable signals
